# In patent US4795814A, “Process for preparing novel dihydropyridine derivatives” (Otsuka Pharmaceutical Co., Ltd., priority 1984, dated 1989):
# Where two headings read alike, the source gives them in different places.
# Key:
# [1] = tested on: SHR-rats (spontaneously hypertensive rats); experiment: Pharmacological Test-1: vasodilative effect, systolic blood pressure of SHR-rats by tail cuff method after oral administration; type: in vivo; conditions: 30 mg/kg p.o.
# Description: Vasodilative effects of the dihydropyridine derivatives of the present invention were determined by measuring the systolic blood pressures of test animals before and after the administration of test compound.
# Systolic blood pressures and heart beat of SHR-rats (spontaneously hypertensive rats) were determined by a "tail cuff method". Thus the test animal was placed in a thermostat chamber (Type: FR-12RS, manufactured by Isuze & Co.) and was warmed at 40° C. for 15 minutes so as to vasodilate the tail arteria, the systolic blood pressures were measured by an electro sphygmomanometer (Type: PE-300, manufactured by Narco-Biosystems, Inc.) and recorded by an ink-writing recorder (Type: RECTIHORIZ 8s, manufactured by San-Ei Instrument & Co.). The experiments were conducted under non-anesthetized and semi-confinement conditions. The test compound was orally administered forcedly by using a sonde for oral administration. The test compound was suspended in 0.15%-gum arabic powder aqueous solution so as to make the quantity of the test compound to 2.5 ml/kg. The test animal was not fasted, and the systolic blood pressures (mm-Hg) were measured before the administration (hereinafter referred to as "PRE") and after the administration (8, 24, 30, 48, 54 and 72 hours after the administration) of the test compound. The data of systolic blood pressure measured before the administration are shown in absolute value of mmHg, and the data measured after the administration are shown in the differences from the absolute values.
# [2] = target: T1, Calmodulin-dependent cyclic-AMP phosphodiesterase (EC 3.1.4.17) (Bos taurus, UniProt P14100); experiment: Pharmacological Test-2 (2): Cyclic-AMP phosphodiesterase inhibitory activity (EGTA in place of CaCl2); type: biochemical, bovine
# T1 construct: An enzyme substance isolated from the heart of bovine and purified partially; from tissue; host or cells: bovine heart
# Description: (§1) (2) Calmodulin-dependent cyclic-AMP phosphodiesterase (EC 3.1.4.17): An enzyme substance isolated from the heart of bovine and purified partially by a method of modified version of the disclosure in H. C. Ho, T. S. Teo, et al.: "Biochim. Biophys. Acta", 429, 461 (1976).
# (§2) (3) 5'-Nucleotidase (EC 3.1.3.5): Grade IV substance (isolated from Crotalus adamanteus venom) manufactured by Sigma & Co.
# (§3) (4) Others: Remainder of the reagents used in the test were those of reagent grade chemicals manufactured by Wako Pure-Chemical Industries, Ltd.
# (§4) Calmodulin inhibitory activity of each of the test compounds was measured by a method of modified version of the disclosure in T. S. Teo and T. H. Wang: "J. Bio. Chem.", 248, 588 (1973).
# (§5) (3) 5'-Nucleotidase: One unit thereof hydrolyzes 1.0 micromole of inorganic phosphorus from adnosine 5'-monophosphate per minute at pH 9.0 at 37° C.
# (§6) 40 mM of Imidazol, 20 mM of MgCl2, 20 mM of CaCl2, 0.008 […] of cyclic-AMP phosphodiesterase, 1.0 unit of calmodulin, 0.2 unit of 5'-nucleotidase and 1.0 ml of 10 mM-tris(hydroxymethyl)aminomethane/HCl buffer solution (pH 7.0) containing 0.5 mM of cyclic-AMP were mixed together, and reacted at 30° C. for 30 minutes. Each of the test compounds were dissolved in methanol or N,N-dimethylformamide as the solvent, provided that the quanitty of the solvent was not exceed 2% of the total amount of the mixture. After the reaction was completed, the reaction mixture was ice-cooled, and 0.5 ml each of aqueous solutions of 16.5%-trichloroacetic acid, 1%-thiourea, 3%-ammonium ferrous sulfate were respectively added to the reaction mixture. Further, 0.15 ml of 4.4%-ammonium molibdate solution was added to the mixture and the whole of the mixture was stirred, and was centrifuged at 3,000 r.p.m. for 10 minutes. Then, the centrifuged mixture was allowed to stand at a room temperature for 20 minutes. The OD660 nm (optical density at 660 nm) was measured.
# (2) Cyclic-AMP phosphodiesterase inhibitory activity:
# The reaction was conducted by a method similar to that described in (1) as mentioned above, except that 1 mM of EGTA [ethylene glycol-bis(β-aminoethyl ether)-N,N-tetraacetic acid] was used in place of 20 mM of CaCl2. The reaction was conducted for 3 hours.
# [3] = target: T2, Calmodulin-cyclic-AMP phosphodiesterase (Bos taurus, UniProt P14100+P62157); experiment: Pharmacological Test-2 (1): Calmodulin-cyclic-AMP phosphodiesterase inhibitory activity (with calmodulin, CaCl2); type: biochemical, bovine; conditions: in the presence of calmodulin, CaCl2, pH 7.0, 30° C., 30 minutes
# T2 construct: An enzyme substance isolated from the heart of bovine and purified partially; which was isolated from the brain of bovine, and purified so as to be considered as a single substance; from tissue; host or cells: bovine heart (phosphodiesterase); the calmodulin is a bovine brain product of Amano & Co
# Description: (1) Calmodulin: A calmodulin product manufactured by Amano & Co., which was isolated from the brain of bovine, and purified so as to be considered as a single substance with respect to SDS-page (polyacrylamide gel electrophoresis) method.
# as §1, §2, §3, §4
# (2) Calmodulin: One unit thereof stimulates 0.015 activated unit of cyclic-AMP phosphodiesterase to 50% of the maximum activity of the enzyme.
# as §5
# (3) Reactions in the tests (1) Calmodulin-cyclic-AMP phosphodiesterase inhibitory activity:
# as §6
# [4] = 1 mM EGTA in place of CaCl2, 3 hours, read-out: Cyclic-AMP phosphodiesterase IC50 (converted)
# T1 sequence (P14100 1-514 isoform P14100-2): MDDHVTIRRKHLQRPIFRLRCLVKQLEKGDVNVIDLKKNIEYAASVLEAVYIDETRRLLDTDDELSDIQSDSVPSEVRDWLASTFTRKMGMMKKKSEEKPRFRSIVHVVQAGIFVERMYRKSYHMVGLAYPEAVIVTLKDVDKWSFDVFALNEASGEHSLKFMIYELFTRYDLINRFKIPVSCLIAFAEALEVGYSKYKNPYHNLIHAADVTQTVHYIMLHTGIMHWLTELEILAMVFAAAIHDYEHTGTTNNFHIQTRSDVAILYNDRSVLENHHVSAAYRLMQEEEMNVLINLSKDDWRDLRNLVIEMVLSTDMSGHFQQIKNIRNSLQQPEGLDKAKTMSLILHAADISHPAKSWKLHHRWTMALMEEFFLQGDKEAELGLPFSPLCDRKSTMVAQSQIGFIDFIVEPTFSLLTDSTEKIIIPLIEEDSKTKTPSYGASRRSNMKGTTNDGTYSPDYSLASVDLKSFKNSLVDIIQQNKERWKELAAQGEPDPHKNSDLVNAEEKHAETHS
Compound,"IC50 [2, 4] [µM]",other results
"methyl 4-[(1-ethoxy)ethoxy]cinnamyl 1,4-dihydro-2,6-dimethyl-4-(3-nitrophenyl)pyridine-3,5-dicarboxylate [Example 1]",,"Blood pressure after the administration, difference from the PRE value ([1]; 24 hours): -41.0 mm-Hg; Blood pressure after the administration, difference from the PRE value ([1]; 30 hours): -52.0 mm-Hg; Blood pressure after the administration, difference from the PRE value ([1]; 48 hours): -26.5 mm-Hg; Blood pressure after the administration, difference from the PRE value ([1]; 54 hours): -19.8 mm-Hg; Blood pressure after the administration, difference from the PRE value ([1]; 72 hours): -12.5 mm-Hg"
"COC(=O)C1=C(C)NC(C)=C(C(=O)OC/C=C/C=C/c2ccc(O)cc2)C1c1cccc([N+](=O)[O-])c1 (stereo not drawn) [Test Compound 3, Methyl 5-(4-hydroxyphenyl)-2(E),4(E)-pentadienyl 1,4-dihydro-2,6-dimethyl-4-(3-nitrophenyl)-pyridine-3,5-dicarboxylate]",> 204,
"COC(=O)C1=C(C)NC(C)=C(C(=O)OC/C=C/c2ccc(O)cc2)C1c1cccc([N+](=O)[O-])c1 (stereo not drawn) [Test Compound 1, Methyl 3-(4-hydroxyphenyl)-2(E)-propenyl 1,4-dihydro-2,6-dimethyl-4-(3-nitrophenyl)pyridine-3,5-dicarboxylate]",129,IC50 [3]: 8.83 µM
"COC(=O)C1=C(C)NC(C)=C(C(=O)OC/C=C/c2ccccc2)C1c1cccc([N+](=O)[O-])c1 (stereo not drawn) [Test Compound 2, Methyl 3-phenyl-2(E)-propenyl 1,4-dihydro-2,6-dimethyl-4-(3-nitrophenyl)pyridine-3,5-dicarboxylate]",> 223,
"COC(=O)C1=C(C)NC(C)=C(C(=O)OC/C=C/c2ccc(O)cc2)C1c1ccccc1C (stereo not drawn) [Test Compound 16, Methyl 3-(4-hydroxyphenyl)-2(E)-propenyl 1,4-dihydro-2,6-dimethyl-4-(2-methylphenyl)-pyridine-3,5-dicarboxylate]",134,
"COC(=O)C1=C(C)NC(C)=C(C(=O)OC/C=C/c2ccc(O)c(OC)c2)C1c1cccc([N+](=O)[O-])c1 (stereo not drawn) [Test Compound 7, Methyl 3-(3-methoxy-4-hydroxyphenyl)-2(E)-propenyl 1,4-dihydro-2,6-dimethyl-4-(3-nitrophenyl)pyridine-3,5-dicarboxylate]",174,
"COC(=O)C1=C(C)NC(C)=C(C(=O)OCCN(C)Cc2ccccc2)C1c1cccc([N+](=O)[O-])c1 (stereo not drawn) [Test Compound 18, Methyl 2-(N--methyl-N--benzylamino)ethyl 1,4-dihydro-2,6-dimetyyl-4-(3-nitrophenyl)pyridine-3,5-dicarboxylate, reference compound]",,IC50 [2]: 27.1 µM
"COC(=O)C1=C(C)NC(C)=C(C(=O)OC/C=C/c2ccc(O)cc2)C1c1ccccc1 (stereo not drawn) [Test Compound 15, Methyl 3-(4-hydroxyphenyl)-2(E)-propenyl 1,4-dihydro-2,6-dimethyl-4-phenylpyridine-3,5-dicarboxylate]",76.3,
"COC(=O)C1=C(C)NC(C)=C(C(=O)OC/C=C/c2ccccc2O)C1c1cccc([N+](=O)[O-])c1 (stereo not drawn) [Test Compound 11, Methyl 3-(2-hydroxyphenyl)-2(E)-propenyl 1,4-dihydro-2,6-dimethyl-4-(3-nitrophenyl)-pyridine-3,5-dicarboxylate]",26.9,
COC(=O)C1=C(C)NC(C)=C(C(=O)OC/C=C/c2ccc(OC(C)=O)cc2)C1c1cccc([N+](=O)[O-])c1 (stereo not drawn) [Example 14],98.7,
"COC(=O)C1=C(C)NC(C)=C(C(=O)OCC#Cc2ccc(O)cc2)C1c1cccc([N+](=O)[O-])c1 (stereo not drawn) [Test Compound 10, Methyl 3-(4-hydroxyphenyl)-2-propynyl 1,4-dihydro-2,6-dimetyyl-4-(3-nitrophenyl)-pyridine-3,5-dicarboxylate]",28.1,IC50 [3]: 1.69 µM
COC(=O)C1=C(C)NC(C)=C(C(=O)OC/C=C/c2ccc(OC)cc2)C1c1cccc([N+](=O)[O-])c1 (stereo not drawn) [Test Compound 8],> 209,
"COC(=O)C1=C(C)NC(C)=C(C(=O)OCC/C=C/c2ccc(SC)cc2)C1c1cccc([N+](=O)[O-])c1 (stereo not drawn) [Test Compound 13, Methyl 4-(4-methylthiophenyl)-3(E)-butenyl 1,4-dihydro-2,6-dimethyl-4-(3-nitrophenyl)-pyridine-3,5-dicarboxylate]",0.452,IC50 [3]: 0.122 µM
COC(=O)C1=C(C)NC(C)=C(C(=O)OC/C=C/c2ccc(O)cc2)C1c1ccccc1C(F)(F)F (stereo not drawn) [Test Compound 12],> 205,
"COC(=O)C1=C(C)NC(C)=C(C(=O)OC/C=C/c2ccc(O)c(Cl)c2)C1c1cccc([N+](=O)[O-])c1 (stereo not drawn) [Test Compound 9, Methyl 3-(3-chloro-4-hydroxyphenyl)-2(E)-propenyl 1,4-dihydro-2,6-dimetyyl-4-(3-nitrophenyl)pyridine-3,5-dicarboxylate]",> 200,
"COC(=O)C1=C(C)NC(C)=C(C(=O)OC/C=C/c2cccc(O)c2)C1c1ccccc1[N+](=O)[O-] (stereo not drawn) [Test Compound 17, Methyl 3-(3-hydroxyphenyl)-2(E)-propenyl 1,4-dihydro-2,6-dimethyl-4-(2-nitrophenyl)-pyridine-3,5-dicarboxylate]",53,IC50 [3]: 1.94 µM
